Consider one compound from patent US20250099405A1, “COMPOSITIONS, METHODS, AND DEVELOPMENT OF ARID4B INHIBITORS” (University of Kentucky Research Foundation, priority 2022, published 2025).

Structures are written as SMILES.

This test deals with T1, ARID4B binding to H3K4me3 (Homo sapiens, UniProt Q4LE39).
T1 construct: His; made in house; host or cells: Sf9
T1 sequence (Q4LE39 1-1312): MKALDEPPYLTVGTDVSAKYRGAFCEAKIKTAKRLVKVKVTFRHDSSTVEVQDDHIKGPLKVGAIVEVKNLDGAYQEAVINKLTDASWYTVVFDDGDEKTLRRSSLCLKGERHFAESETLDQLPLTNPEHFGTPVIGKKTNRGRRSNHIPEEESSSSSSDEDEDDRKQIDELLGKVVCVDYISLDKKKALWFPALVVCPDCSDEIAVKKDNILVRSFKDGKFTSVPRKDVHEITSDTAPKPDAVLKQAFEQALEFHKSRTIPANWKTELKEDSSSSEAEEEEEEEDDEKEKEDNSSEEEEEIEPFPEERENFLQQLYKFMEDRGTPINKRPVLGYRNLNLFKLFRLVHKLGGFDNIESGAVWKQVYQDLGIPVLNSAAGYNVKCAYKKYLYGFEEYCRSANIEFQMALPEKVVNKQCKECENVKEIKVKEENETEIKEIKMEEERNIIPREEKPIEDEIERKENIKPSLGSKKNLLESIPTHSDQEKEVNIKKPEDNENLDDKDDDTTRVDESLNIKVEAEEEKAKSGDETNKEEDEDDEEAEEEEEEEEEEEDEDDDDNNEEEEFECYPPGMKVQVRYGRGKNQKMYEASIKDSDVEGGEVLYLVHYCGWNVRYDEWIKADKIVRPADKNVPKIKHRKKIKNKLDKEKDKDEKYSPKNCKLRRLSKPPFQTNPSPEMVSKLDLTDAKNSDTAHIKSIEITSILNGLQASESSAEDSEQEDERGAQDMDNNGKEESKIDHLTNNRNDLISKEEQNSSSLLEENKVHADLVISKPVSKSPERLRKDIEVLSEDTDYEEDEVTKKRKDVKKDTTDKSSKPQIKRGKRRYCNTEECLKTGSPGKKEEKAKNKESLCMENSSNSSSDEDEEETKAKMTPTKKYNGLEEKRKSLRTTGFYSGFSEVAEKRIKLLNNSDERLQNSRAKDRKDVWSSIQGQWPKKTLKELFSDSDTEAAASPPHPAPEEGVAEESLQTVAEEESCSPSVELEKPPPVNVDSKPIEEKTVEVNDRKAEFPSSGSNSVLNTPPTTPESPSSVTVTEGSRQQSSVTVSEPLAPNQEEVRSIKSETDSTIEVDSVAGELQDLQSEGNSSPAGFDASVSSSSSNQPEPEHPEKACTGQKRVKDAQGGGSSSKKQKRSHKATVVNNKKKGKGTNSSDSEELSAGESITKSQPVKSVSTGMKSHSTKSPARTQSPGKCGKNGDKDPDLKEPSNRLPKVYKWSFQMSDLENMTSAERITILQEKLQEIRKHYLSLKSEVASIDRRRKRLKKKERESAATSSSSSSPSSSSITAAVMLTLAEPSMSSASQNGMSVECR
The test can be described thus: Histone peptide binding assay. The following applies: His-ARID4B pre-incubated with compound. On the procedure:
His-ARID4B was pre-incubated with RWR-18 as indicated followed by histone peptide binding assays.
Histone peptide binding assays were used to determine that ARID4B binds to which methylated lysine. Full-length His-ARID4B and deletion mutants expressed in Sf9 were purified by Ni-NTA affinity resin (FIG. 20A). To determine which methylated lysine ARID4B binds, full-length His-ARID4B was incubated with biotinylated histone H3 peptides tri-methylated at the K4, K9, K27, K36 or K79. The corresponding unmethylated H3 peptides were used as controls ([…]). […] Next, the ARID4B deletion mutants were used to determine domain(s) of ARID4B responsible for binding to H3K4me3. Deletion of Tudor and chromo domains impaired binding to H3K4me3 (FIG. 20C, compare lanes 3, 4, and 7).
Since RWR-18 targets the chromodomain of ARID4B, which is important for binding to H3K4me3 (FIG. 20), it was tested whether RWR-18 interferes with binding of H3K4me3 using histone peptide binding assays as described above.

As to `O=C(COc1ccc(OCc2ccccc2)cc1)NCCCN1CCOCC1` [RWR-18], the “binding of ARID4B to H3K4me3” value is given as “inhibited”.
